Measured values taken from PMC11949107, “Polyunsaturated fatty acids and their endocannabinoid-related metabolites activity at human TRPV1 and TRPA1 ion channels expressed in HEK-293 cells” (PeerJ, 2025).
Values joined by “and” are separate entries in the source; they are usually repeats but may differ in a detail not shown here. Identical values can stand only once.

Tests used:
human TRPV1 = target: T1, human TRPV1 (Homo sapiens, UniProt Q8NER1); test: Calcium 5 dye [Ca]i assay in HEK-293 Flp-In T-REx cells expressing TRPV1 (agonist response); format: cell-based; conditions: for Elevation of [Ca]i in HEK-293 TRPV1 cells compared with HEK-293 EV cells / Change of Ca5 fluorescence, Mean ± SEM, TRPV1 (10 µM): 10 µM; for Change of Ca5 fluorescence, Mean ± SEM, TRPV1 (10 µM): percentage of predrug baseline; for TRPV1 response, Mean± SEM (N): 30 µM, one-way ANOVA comparison with capsaicin 10 µM; for Emax at 30 µM: HEK293, read-out: Emax ± SEM % TRPV1 (30 µM); for Change in Ca5 fluorescence, individual experiments (CRC raw data): TRPV1 cells
T1 construct: Life Technologies (cells); host or cells: Flp-In T-REx HEK-293
T1 sequence (Q8NER1 whole entry): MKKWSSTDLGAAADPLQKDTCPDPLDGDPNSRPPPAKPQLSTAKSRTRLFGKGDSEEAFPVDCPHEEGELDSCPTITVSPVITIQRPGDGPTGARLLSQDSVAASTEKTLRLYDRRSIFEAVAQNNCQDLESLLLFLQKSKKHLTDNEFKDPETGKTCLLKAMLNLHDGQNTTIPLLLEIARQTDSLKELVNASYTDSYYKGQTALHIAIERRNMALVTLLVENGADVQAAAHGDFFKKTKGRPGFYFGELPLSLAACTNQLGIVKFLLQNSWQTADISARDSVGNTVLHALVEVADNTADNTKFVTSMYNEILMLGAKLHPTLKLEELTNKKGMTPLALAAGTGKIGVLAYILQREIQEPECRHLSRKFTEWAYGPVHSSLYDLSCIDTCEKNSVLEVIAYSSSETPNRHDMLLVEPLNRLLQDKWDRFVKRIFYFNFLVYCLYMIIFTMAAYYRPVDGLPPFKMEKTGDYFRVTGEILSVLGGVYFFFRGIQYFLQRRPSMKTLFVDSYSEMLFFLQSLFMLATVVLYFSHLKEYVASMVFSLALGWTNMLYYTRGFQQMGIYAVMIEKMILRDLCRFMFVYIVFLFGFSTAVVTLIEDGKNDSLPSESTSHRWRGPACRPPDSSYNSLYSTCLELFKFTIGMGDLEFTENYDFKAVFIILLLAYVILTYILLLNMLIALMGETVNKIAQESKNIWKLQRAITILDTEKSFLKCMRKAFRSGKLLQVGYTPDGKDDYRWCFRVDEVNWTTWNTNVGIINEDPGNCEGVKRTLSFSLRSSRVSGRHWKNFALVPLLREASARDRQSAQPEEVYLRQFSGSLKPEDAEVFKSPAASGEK
Protocol: (§1) The cells were incubated in a 5% CO2 humidified atmosphere at 37 °C. Upon reaching approximately 90% confluence in 75 cm^2 flasks, they were trypsinized and transferred to poly-D-lysine coated 96-well plates (Corning, Castle Hill, NSW, Australia) in L-15 medium supplemented with 1% FBS, 100 U penicillin and 100 µg streptomycin ml^−1 (1% P/S), and 15 mM glucose (80 µL volume per well). After an overnight incubation (maximum of 16 h) in humidified room air at 37 °C, TRPV1 and TRPA1 receptor expression was induced 4 h before experimentation by adding to each well 10 µL tetracycline solution to a final concentration of 1 µg ml^−1.
(§2) Intracellular calcium [Ca]i levels were assessed using the calcium 5 kit from Molecular Devices (# R8186, Sunnyvale, CA, USA) on a FlexStation 3 Microplate Reader (Molecular Devices, Sunnyvale, CA, USA). […] Probenecid (cat # 50027; Biotium) which helps to prevent expulsion of calcium indicator from the cells was added to a final concentration of 1.25 mM. 90 µL of the dye were loaded into each well of the plate and incubated for 1 h before reading in the FlexStation 3 at 37 °C. Fluorescence was recorded every 2 s (λ excitation = 485 nm, λ emission = 525 nm) for 5 min. After 1 min of baseline recording, 20 µL of the drug, dissolved in HBSS with 1% dimethyl sulfoxide (DMSO) (cat # D2650; Sigma-Aldrich, Melbourne, Australia) was added (final DMSO concentration was 0.1% in well).
(§3) The response to agonists was expressed as a percentage change from the average baseline measurement taken for 60s before adding drug. Changes in fluorescence resulting from the addition of solvent were subtracted before normalization to baseline. Concentration–response curves (CRC), Emax and EC50 values were determined using a three-parameter logistic equation (GraphPad Prism, San Diego, CA, USA). […] Potencies were expressed as pEC50, which is the negative log of EC50 in moles per litre (Molar). Where appropriate, unpaired Student’s t-test were used to compare the responses of individual compounds in different conditions, while a one-way ANOVA followed by Dunnett’s multiple comparisons test was used to assess potential differences in responses elicited by a range of compounds. P < 0.05 was considered statistically significant.

human TRPA1 = target: T2, human TRPA1 (Homo sapiens, UniProt O75762); test: Calcium 5 dye [Ca]i assay in HEK-293 Flp-In T-REx cells expressing TRPA1 (agonist response); format: cell-based; conditions: for Change of Ca5 fluorescence, Mean ± SEM, TRPA1 (10 µM): HEK-293 TRPA1 cells, percentage of predrug baseline; for TRPA1 activation at the highest concentration tested / TRPA1 response compared with the highest concentration of cinnamaldehyde (300 µM) / TRPA1 response, Mean± SEM (N): 30 µM; for TRPA1 response, Mean± SEM (N): one-way ANOVA comparison with cinnamaldehyde 300 µM; for Emax at 30 µM: HEK293, read-out: Emax ± SEM % TRPA1 (30 µM); for Change in Ca5 fluorescence, individual experiments (CRC raw data): TRPA1 cells; for Elevation of [Ca]i in HEK-293 TRPA1 cells compared with HEK-293 EV cells: 10 µM (cinnamaldehyde 300 µM); for [Ca]i response (change in fluorescence), individual replicates: sheet Figure 3(E)
T2 construct: Life Technologies (cells); host or cells: Flp-In T-REx HEK-293
T2 sequence (O75762 whole entry): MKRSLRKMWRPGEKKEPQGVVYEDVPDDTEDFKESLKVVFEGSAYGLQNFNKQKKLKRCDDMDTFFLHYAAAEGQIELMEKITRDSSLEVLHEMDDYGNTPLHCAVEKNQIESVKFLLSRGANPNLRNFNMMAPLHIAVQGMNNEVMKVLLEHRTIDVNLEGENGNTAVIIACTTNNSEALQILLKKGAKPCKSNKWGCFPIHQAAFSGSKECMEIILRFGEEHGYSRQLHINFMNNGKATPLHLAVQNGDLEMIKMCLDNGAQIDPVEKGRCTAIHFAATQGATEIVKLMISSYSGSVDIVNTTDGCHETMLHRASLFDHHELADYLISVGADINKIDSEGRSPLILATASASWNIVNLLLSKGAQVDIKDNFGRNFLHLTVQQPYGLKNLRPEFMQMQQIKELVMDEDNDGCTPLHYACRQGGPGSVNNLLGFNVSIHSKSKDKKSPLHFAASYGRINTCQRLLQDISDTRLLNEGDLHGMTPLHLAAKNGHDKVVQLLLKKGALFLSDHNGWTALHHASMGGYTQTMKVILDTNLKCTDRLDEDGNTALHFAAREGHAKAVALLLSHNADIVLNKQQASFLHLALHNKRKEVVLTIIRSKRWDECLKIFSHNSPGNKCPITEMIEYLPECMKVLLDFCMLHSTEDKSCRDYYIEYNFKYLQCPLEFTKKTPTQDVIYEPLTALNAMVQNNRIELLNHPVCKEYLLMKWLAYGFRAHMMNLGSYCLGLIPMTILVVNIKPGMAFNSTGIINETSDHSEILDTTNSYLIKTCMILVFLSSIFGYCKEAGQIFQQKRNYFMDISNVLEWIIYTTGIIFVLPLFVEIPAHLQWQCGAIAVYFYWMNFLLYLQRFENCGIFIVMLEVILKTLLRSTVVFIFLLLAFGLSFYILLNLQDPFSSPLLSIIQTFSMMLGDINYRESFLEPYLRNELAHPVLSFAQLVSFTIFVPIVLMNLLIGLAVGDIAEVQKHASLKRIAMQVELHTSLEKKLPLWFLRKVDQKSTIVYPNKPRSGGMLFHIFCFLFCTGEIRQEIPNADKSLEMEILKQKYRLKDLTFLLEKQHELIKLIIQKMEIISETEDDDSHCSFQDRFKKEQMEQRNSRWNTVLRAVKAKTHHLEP
Protocol: as §1, §2, §3

HEK-293 EV cells = test: Calcium 5 dye [Ca]i assay in HEK-293 empty vector (EV) cells; format: cell-based, human; conditions: 10 µM
Protocol: as §1
Intracellular calcium [Ca]i levels were assessed using the calcium 5 kit from Molecular Devices (# R8186, Sunnyvale, CA, USA) on a FlexStation 3 Microplate Reader (Molecular Devices, Sunnyvale, CA, USA). […] 90 µL of the dye were loaded into each well of the plate and incubated for 1 h before reading in the FlexStation 3 at 37 °C. […] After 1 min of baseline recording, 20 µL of the drug, dissolved in HBSS with 1% dimethyl sulfoxide (DMSO) (cat # D2650; Sigma-Aldrich, Melbourne, Australia) was added (final DMSO concentration was 0.1% in well).
as §3

[1] = HEK-293 EV cells, percentage of predrug baseline

Compound	Elevation of [Ca]i in HEK-293 TRPV1 cells compared with HEK-293 EV cells (human TRPV1)	Change of Ca5 fluorescence, Mean ± SEM, TRPV1 (10 µM) (human TRPV1; HEK-293 TRPV1 cells) [%]	TRPV1 response, Mean± SEM (N) (human TRPV1)	Emax at 30 µM (human TRPV1) [%]	Change in Ca5 fluorescence, individual experiments (CRC raw data) (human TRPV1; log concentration -4.52288 (M))	Change in Ca5 fluorescence, individual experiments (CRC raw data) (human TRPV1; log concentration -5 (M))	Change in Ca5 fluorescence, individual experiments (CRC raw data) (human TRPV1; log concentration -5.52288 (M))	Change in Ca5 fluorescence, individual experiments (CRC raw data) (human TRPV1; log concentration -6 (M))	Change in Ca5 fluorescence, individual experiments (CRC raw data) (human TRPV1; log concentration -6.52288 (M))	Change in Ca5 fluorescence, individual experiments (CRC raw data) (human TRPV1; log concentration -7 (M))	Change of Ca5 fluorescence, Mean ± SEM, TRPA1 (10 µM) (human TRPA1) [%]	TRPA1 activation at the highest concentration tested (human TRPA1)	TRPA1 response compared with the highest concentration of cinnamaldehyde (300 µM) (human TRPA1)	TRPA1 response, Mean± SEM (N) (human TRPA1)	Emax at 30 µM (human TRPA1) [%]	Change in Ca5 fluorescence, individual experiments (CRC raw data) (human TRPA1; log concentration -4.52288 (M))	Change in Ca5 fluorescence, individual experiments (CRC raw data) (human TRPA1; log concentration -5 (M))	Change in Ca5 fluorescence, individual experiments (CRC raw data) (human TRPA1; log concentration -5.52288 (M))	Change in Ca5 fluorescence, individual experiments (CRC raw data) (human TRPA1; log concentration -6 (M))	Change in Ca5 fluorescence, individual experiments (CRC raw data) (human TRPA1; log concentration -6.52288 (M))	further results
CCCCC/C=C\C/C=C\CCCCCCCC(=O)OC(CO)CO [2-LG, 2-linoleoyl glycerol]	significantly greater	41 ± 13	75± 56	75 ± 13	94.4158 and 105.55 and 25.614 and 76.6153 and 45.9507 and 101.137	77.397 and 64.9743 and 11.4263 and 68.0539 and 10.4174 and 14.0616	11.4427 and 8.3913 and 3.912 and 22.8641 and 8.0659 and 6.3713	1.494 and 8.29 and 4.971 and 3.518 and 4.176 and 6.083	-0.2355 and 4.786 and 26.5089 and 15.6203 and 3.581 and 2.28	0.8392 and 7.338 and 6.807 and 12.2096 and 4.264 and 3.998	6 ± 2	no effect	significantly smaller	10± 60	10 ± 4	12.5375 and 5.756 and 5.697 and 4.08 and 3.702 and 27.8122	11.4202 and 3.2095 and 1.996 and 7.055 and 3.7574 and 11.3273	11.369 and 3.556 and 1.657 and 5.485	12.4294 and 3.284 and 5.41 and 5.662 and 4.232 and 5.177	12.1064 and 3.832 and 1.455 and 7.527	Change in Ca5 fluorescence, individual experiments (CRC raw data) (human TRPA1; log concentration -7 (M)): 15.3703 and 7.007 and 2.201 and 137.719; Change of Ca5 fluorescence, Mean ± SEM, EV (10 µM) (HEK-293 EV cells): 4 ± 1%
CCCCC/C=C\C/C=C\C/C=C\C/C=C\CCCC(=O)OC(CO)CO [2-AG, 2-arachidonoylglycerol]	did not produce a notable change	30 ± 12	78± 56	78 ± 26	27.3329 and 112.734 and 162.217 and 44.4524 and 123.109 and 0.2559	7.357 and 86.123 and 26.0517 and 22.0298 and 37.7022 and 3.715	1.982 and 59.8686 and 3.625 and 7.304 and 11.7183 and 5.763	3.178 and 11.4308 and 1.524 and 2.296 and 1.51 and 5.0359	2.799 and 5.91 and 1.131 and 13.0737 and 2.188 and 2.217	3.868 and 2.533 and 1.007 and 9.752 and 4.95 and 2.563	6 ± 1	activated TRPA1	significantly smaller	109 ± 60	109 ± 68						Elevation of [Ca]i in HEK-293 TRPA1 cells compared with HEK-293 EV cells (human TRPA1): did not produce a change; [Ca]i response (change in fluorescence), individual replicates (human TRPA1; concentration -4.52288 (log)): 14.9622 and 7.179 and 134.366 and 9.127 and 431.447 and 54.77; [Ca]i response (change in fluorescence), individual replicates (human TRPA1; concentration -5 (log)): 4.64 and 4.022 and 10.3661 and 3.3919 and 6.211 and 4.731; [Ca]i response (change in fluorescence), individual replicates (human TRPA1; concentration -5.52288 (log)): 6.153 and 3.314 and 8.987 and 3.008 and 4.615 and 3.811; [Ca]i response (change in fluorescence), individual replicates (human TRPA1; concentration -6 (log)): 6.477 and 4.178 and 4.8275 and 2.1815 and 3.7711 and 3.334; [Ca]i response (change in fluorescence), individual replicates (human TRPA1; concentration -6.52288 (log)): 5.571 and 5.908 and 5.712 and 6.071 and 7.256 and 4.936; [Ca]i response (change in fluorescence), individual replicates (human TRPA1; concentration -7 (log)): 4.596 and 9.253 and 10.2641 and 5.393 and 9.276 and 4.379; Change of Ca5 fluorescence, Mean ± SEM, EV (10 µM) (HEK-293 EV cells; [1]): 4 ± 2%
CC/C=C\C/C=C\C/C=C\C/C=C\C/C=C\C/C=C\CCC(=O)NCCO [DHEA, docosahexaenoyl ethanolamide]	significantly greater	266 ± 51			421.157 and 266.746 and 225.074 and 238.504 and 226.816 and 459.662	358.299 and 237.035 and 372.804 and 59.1046 and 202.763 and 364.608	143.051 and 24.824 and 40.8645 and 14.285 and 22.6333 and 69.1812	82.6736 and 2.152 and 3.016 and 2.309 and 4.337 and 4.334	7.224 and 2.186 and 3.68 and 2.567 and 2.837 and 6.478	5.718 and 2.642 and 2.583 and 2.209 and 5.355 and 1.543	107 ± 50	activated TRPA1	did not differ	335± 60		349.992 and 313.567 and 315.432 and 199.601 and 366.143 and 464.813	252.775 and 33.0558 and 3.468 and 15.2698 and 63.0111 and 272.344	2.533 and 3.173 and 1.452 and 10.0203 and 10.0547 and 73.8394	2.6845 and 3.9598 and 1.663 and 5.882 and 4.143 and 4.307	2.976 and 11.5941 and 1.922 and 8.318 and 8.221 and 6.083	Maximal TRPV1 response compared with the highest concentration of capsaicin (human TRPV1; 30 µM vs capsaicin 10 µM): did not differ; pEC50 ± SEM TRPV1 (human TRPV1; HEK-293 TRPV1 cells, EC50 in molar): 5 ± 0.2; Emax ± SEM % TRPV1 (30 µM) (human TRPV1; highest tested concentration (30 µM) or derived from concentration-response curves (DHEA, AEA, NADA, capsaicin)): 439 ± 81%; Elevation of [Ca]i in HEK-293 TRPA1 cells compared with HEK-293 EV cells (human TRPA1): significantly greater; Emax ± SEM % TRPA1 (30 µM) (human TRPA1; highest tested concentration (30 µM) or derived from concentration-response curves (cinnamaldehyde)): 335 ± 35%; Change in Ca5 fluorescence, individual experiments (CRC raw data) (human TRPA1; log concentration -7 (M)): 8.586 and 11.8101 and 8.8764 and 6.208 and 4.123 and 2.766; Change of Ca5 fluorescence, Mean ± SEM, EV (10 µM) (HEK-293 EV cells; [1]): 10 ± 3%
